Measured values as given in US20220365087A1, “METHOD FOR ACQUIRING DATA FOR DISTINGUISHING PRESENCE OF CANCER CELLS AND/OR DISTINGUISHING ANTICANCER DRUG RESISTANCE, METHOD FOR ACQUIRING PREDICTION DATA, USE OF DISTINCTION MARKER IN SAME, AND DISTINGUISHING KIT” (KEIO UNIVERSITY, priority 2019, published 2022).

Tests used:
[1] = system: plasmid (pcDNA3.1 empty vector) double strand DNA; test: Gel shift assay of DNA supercoiling disturbance by cisplatin; type: biochemical; conditions: 37° C. for 60 minutes; for effect on disturbance of double strand DNA supercoiling by cisplatin (CDDP): preincubation of plasmid with Na2Sn, then 60 μM CDDP
Procedure: To quantify the degree of DNA intercalation by cisplatin (CDDP) that disturbs DNA supercoiling, 1 μg of plasmid (pcDNA3.1 empty vector, #V79020, Invitrogen) was mixed with a predetermined concentration of Na2Sn (n=an integer of 1 to 4), and preincubated in 10 mM phosphate-buffered saline (PBS, pH6.0) at room temperature for 5 minutes. Then, a CDDP solution was added to the solution to obtain a final concentration of 60 μM. Thereafter, the mixed solution was incubated at 37° C. for 60 minutes. After the incubation, the reaction products in the mixed solution were separated by electrophoresis using 1% agarose gel for determination of the DNA secondary structure.
It was previously shown that cisplatin can disturb DNA supercoiling by being intercalated between bases of double-stranded DNA structures and causing structural changes (Non-patent Document 4). In this study, the present inventors determined in vitro that cisplatin induced change in the bulk molecular volume of supercoiling DNA, and the bulk molecular volume was recovered by addition of polysulfide (FIG. 3).
This can be inferred because of the enhanced reducing power of the polysulfide with the increase in the number of sulfur atoms.

[2] = system: ovarian serous carcinoma (SC); test: Effectiveness of the anticancer drug in ovarian serous carcinoma; type: in vivo
[3] = system: ovarian clear cell carcinoma (CCC); test: Effectiveness of the anticancer drug in ovarian clear cell carcinoma; type: in vivo

Row | Structure (SMILES) | effect on disturbance of double strand DNA supercoiling by cisplatin (CDDP) [1] | effectiveness as an anticancer drug [2] | change in the bulk molecular volume of supercoiling double strand DNA ([1]; CDDP final concentration 60 μM, 1 μg plasmid, 1% agarose gel) | effectiveness as an anticancer drug [3]
1 | [Na+].[Na+].[S-][S-] [Na2S2] | attenuated | – | – | –
2 | [Na+].[Na+].[S-]S[S-] [Na2S3] | attenuated | – | – | –
3 | [Na+].[Na+].[S-]SS[S-] [Na2S4] | attenuated | – | – | –
4 | [Na+].[Na+].[S-2] [Na2S] | attenuated | – | – | –
5 | N.N.[Cl][Pt][Cl] [cisplatin] | – | more effective | increased the bulk molecular volume of double strand DNA | less effective
